Patent publication US6846933B1, “Antimycobacterial compounds and method for making the same” (priority 2000, dated 2005)
Converted amounts (≈) assume the structure as drawn. Like-named read-outs stand apart in the source and are kept apart here.

Assays:
[1] = test system: M. avium (ATCC 25291); assay: TAACF M. avium assay; format: cell-based, Mycobacterium avium; design: % Inhibition: concentration or dose not given beside the values; conditions: for % Inhibition: M. avium assay; for MIC: Mycobacterium avium, ATCC25291, M. avium assay, read-out: MIC
[2] = Quantitative estimate of relative lipophilicity (chloroform/water partitioning vs isoniazid); conditions: ratio chloroform:water compared to same ratio for isoniazid as standard (INH = unity)
[3] = test system: Mycobacterium tuberculosis H37Rv (ATCC 27294); assay: TAACF MIC / primary screen vs M. tuberculosis H37Rv (MABA or BACTEC 460); format: cell-based; conditions: for MIC: Mycobacterium tuberculosis; for MIC (ug/mg): Table 1, M. tuberculosis assay
[4] = test system: M. tuberculosis Erdman; assay: MIC vs M. tuberculosis Erdman; format: cell-based; conditions: Mycobacterium tuberculosis
[5] = test system: M. tuberculosis EMB-R; assay: microbe, parasite or virus in culture; format: cell-based; conditions: Mycobacterium tuberculosis, read-out: MIC EMB-R (ug/ml)
[6] = test system: M. tuberculosis ETA-R; assay: MIC vs ETA-R M. tuberculosis; format: cell-based; conditions: Mycobacterium tuberculosis, read-out: MIC ETA-R (ug/ml)
[7] = test system: VERO cells; assay: Cytotoxicity in VERO cells (MTT, 72 hours); format: cell-based; conditions: Chlorocebus sabaeus
[8] = test system: M. tuberculosis TAC-R; assay: microbe, parasite or virus in culture; format: cell-based; conditions: Mycobacterium tuberculosis, Bactec, strain panel
[9] = test system: M. tuberculosis H37Rv; assay: Minimum bactericidal concentration vs H37Rv; format: cell-based; conditions: Mycobacterium tuberculosis, read-out: MBC vs H37Rv (ug/ml)
[10] = test system: M. tuberculosis RMP-R; assay: microbe, parasite or virus in culture; format: cell-based; conditions: Mycobacterium tuberculosis, read-out: MBC vs RMP-R (ug/ml)
[11] = test system: M. tuberculosis INH-r; assay: microbe, parasite or virus in culture; format: cell-based; conditions: Mycobacterium tuberculosis, read-out: MBC vs INH-r (ug/ml)
[12] = test system: M. tuberculosis Erdman (ATCC 35801) in monolayers of mouse bone marrow macrophages; assay: Killing of M. tuberculosis Erdman in mouse bone marrow macrophages; format: cell-based; conditions: Mycobacterium tuberculosis, Bone marrow macrophage, 168 h
[13] = Bactec, strain panel, read-out: MIC H37Rv
[14] = Bactec, strain panel, read-out: MIC Erdman
[15] = M. tuberculosis assay, Bactec, Tables 6, 7, 8, read-out: MIC
[16] = M. tuberculosis assay, Table 13, primary screen
[17] = M. tuberculosis assay, Table 13, primary screen, read-out: MIC
[18] = M. tuberculosis assay, Tables 4 and 5, read-out: MIC

CC(=O)N1N=C(c2ccncc2)OC1c1ccc(Cl)c(Cl)c1 (stereo not shown) [Sample ID 123669]
% Inhibition ([1]; Bactec, Tables 10-12): 65% | MIC ([1]; Bactec, Tables 10-12): > 12.5 µg/mL

CC(=O)N1N=C(c2ccncc2)OC1c1c(Cl)cccc1Cl (stereo not shown) [Oxadiazoline Example 4, 2-(2,6-Dichlorophenyl)-3-acetyl-5-(4-pyridyl)-1,3,4-oxadiazoline]
Relative Lipophilicity [2]: 35,667

CCOC(=O)/C(CCc1ccccc1)=N\NC(=O)c1ccncc1 [Sample ID 132358]
MIC [3, 13]: 0.1 µg/mL (≈ 0.307 µM) | MIC (ug/mg) ([3]; Bactec): 0.1 µg/mL (≈ 0.307 µM) | MIC [4, 14]: 0.1 µg/mL (≈ 0.307 µM) | MIC [5]: > 3.2 µg/mL | MIC [6]: 0.8 µg/mL (≈ 2.46 µM) | MIC ([1]; BACTEC, Tables 2 and 3): > 3.2 µg/mL

CO[C@H]1/C=C/O[C@@]2(C)Oc3c(C)c(O)c4c(O)c(c(/C=N/N5CCN(C)CC5)c(O)c4c3C2=O)NC(=O)/C(C)=C\C=C\[C@H](C)[C@H](O)[C@@H](C)[C@@H](O)[C@@H](C)[C@H](OC(C)=O)[C@@H]1C [RMP, rifampin, reference compound]
MIC ([3]; read-out: MIC of RMP vs H37Rv (Comment, Table 9), control in MBC test): 0.5 µg/mL | % inhibition vs. M. tuberculosis (RMP control, Comment) ([3]; RMP at its MIC 0.25 μg/ml): 99% | IC50 [7]: 68 µg/mL (≈ 82.6 µM)

O=C(N/N=C/c1cc(Cl)ccc1Cl)c1ccncc1 [Sample ID 117150]
MIC [3, 13]: < 0.05 µg/mL | MIC [3, 15]: 0.1 µg/mL (≈ 0.34 µM) | MIC ([4]; read-out: MIC Erdman (ug/ml)): < 0.05 µg/mL | MIC [8]: > 3.25 µg/mL | % Inhibition ([1]; Alamar, Table 11): 0% | MIC ([1]; Alamar, Table 11): > 12.5 µg/mL | MIC ([1]; BACTEC, Tables 2 and 3): > 3.25 µg/mL

CC(=O)N1N=C(c2ccncc2)OC1c1c(F)cccc1F (stereo not shown) [Sample ID 122492]
% Inhibition [3, 16]: 99% | MIC [3, 17]: < 12.5 µg/mL

CCC/C(CC(=O)OCC)=N/NC(=O)c1ccncc1 [Sample ID 101702]
MIC ([3]; M. tuberculosis assay, Alamar, Tables 7 and 9): 0.39 µg/mL (≈ 1.41 µM) | MBC [9]: ≥ 0.19 µg/mL | MBC [10]: 0.39 µg/mL (≈ 1.41 µM) | MBC [11]: > 12.5 µg/mL

CC(=O)NNC(=O)c1ccncc1
melting point: 158 to 160 °C

COc1ccc(/C=N/NC(=O)c2ccncc2)cc1 [Sample ID 102866]
MIC [3, 13]: < 0.05 µg/mL | MIC [3, 15]: 0.1 µg/mL (≈ 0.392 µM) | MIC [3, 18]: 0.1 µg/mL (≈ 0.392 µM) | EC90 [12]: 0.04 µg/mL (≈ 0.157 µM) | EC99 [12]: 0.15 µg/mL | MIC ([4]; read-out: MIC Erdman (ug/ml)): < 0.05 µg/mL | MIC [8]: < 3.25 µg/mL | MIC ([1]; BACTEC, Tables 2 and 3): 3.25 µg/mL (≈ 12.7 µM)

O=C(NN=Cc1ccccc1[N+](=O)[O-])c1ccncc1 [Schiff Base Example 47, Isonicotinoylhydrazone of 2-Nitrobenzaldehyde]
Relative Lipophilicity [2]: 316

O=C(N/N=C/c1ccccc1)c1ccncc1 [Sample ID 102787]
MIC [3, 18]: 0.1 µg/mL (≈ 0.444 µM) | EC90 [12]: 0.04 µg/mL (≈ 0.178 µM) | EC99 [12]: 0.12 µg/mL

O=CNNC(=O)c1ccncc1
melting point: 94 to 96 °C

COc1cc(/C=N/NC(=O)c2ccncc2)ccc1O [Sample ID 102858]
MIC [3, 18]: 0.2 µg/mL (≈ 0.737 µM) | EC90 [12]: 0.03 µg/mL (≈ 0.111 µM) | EC99 [12]: 0.12 µg/mL

CC(=O)N1N=C(c2ccncc2)OC1c1ccccc1[N+](=O)[O-] (stereo not shown) [Sample ID 123667]
% Inhibition [3, 16]: 38% | MIC [3, 17]: > 12.5 µg/mL

CC(=O)N1N=C(c2ccncc2)OC1(C)c1ccccc1 (stereo not shown) [Sample ID 122487]
% Inhibition [3, 16]: 98% | MIC [3, 17]: < 12.5 µg/mL

CCCC(=O)NNC(=O)c1ccncc1
melting point: 142 °C

CC1C/C(=N/NC(=O)c2ccncc2)CC(C)(C)C1 (stereo not shown) [Sample ID 114353]
MIC [3, 13]: < 0.1 µg/mL | MIC ([3]; M. tuberculosis assay, Bactec, Tables 6, 7, 8): > 6.25 µg/mL | MIC [4, 14]: < 0.1 µg/mL | MIC [5]: < 0.1 µg/mL

CC(C)=CCCC(C)C/C=N/NC(=O)c1ccncc1 (stereo not shown) [Sample ID 102044]
MIC [3, 13]: < 0.1 µg/mL | MIC [3, 15]: 0.2 µg/mL (≈ 0.732 µM) | MIC [3, 18]: 0.2 µg/mL (≈ 0.732 µM) | EC90 [12]: 0.02 µg/mL (≈ 0.0732 µM) | EC99 [12]: 0.08 µg/mL | MIC [4, 14]: < 0.1 µg/mL | MIC [8]: 3.13 µg/mL (≈ 11.4 µM) | MIC ([1]; BACTEC, Tables 2 and 3): 0.78 µg/mL (≈ 2.85 µM)

O=C(N/N=C/C=C(c1ccccc1)c1ccccc1)c1ccncc1 [Sample ID 132532]
MIC [3, 13]: 0.1 µg/mL (≈ 0.305 µM) | MIC (ug/mg) ([3]; Bactec): 0.1 µg/mL (≈ 0.305 µM) | MIC [4, 14]: 0.1 µg/mL (≈ 0.305 µM) | MIC [5]: > 3.2 µg/mL | MIC [6]: 1.6 µg/mL (≈ 4.89 µM) | MIC ([1]; BACTEC, Tables 2 and 3): > 3.2 µg/mL

CC(=O)N1N=C(c2ccncc2)OC1c1ccc(Cl)c([N+](=O)[O-])c1 (stereo not shown) [Sample ID 122491]
% Inhibition [3, 16]: 98% | MIC [3, 17]: < 12.5 µg/mL
